Literature values in patent US9205144B2, “Identification of conserved peptide blocks in homologous polypeptides” (Dana-Farber Cancer Institute, Inc., priority 2011, dated 2015).

Legend:
HLA-03 = HLA-03 (Homo sapiens, UniProt P04439)
Sequence of HLA-03 (P04439 25-365): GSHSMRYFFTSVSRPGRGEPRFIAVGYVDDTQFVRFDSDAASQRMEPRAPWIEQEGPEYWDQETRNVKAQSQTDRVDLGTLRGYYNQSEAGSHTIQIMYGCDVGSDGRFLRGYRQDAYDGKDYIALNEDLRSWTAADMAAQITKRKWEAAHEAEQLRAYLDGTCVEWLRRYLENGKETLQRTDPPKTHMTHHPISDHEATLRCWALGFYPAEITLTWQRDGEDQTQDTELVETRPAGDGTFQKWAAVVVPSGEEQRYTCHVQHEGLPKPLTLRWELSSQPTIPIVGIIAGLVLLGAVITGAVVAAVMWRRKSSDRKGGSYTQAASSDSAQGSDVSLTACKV
Sequence of HLA-03 (P61769 21-119, further chain): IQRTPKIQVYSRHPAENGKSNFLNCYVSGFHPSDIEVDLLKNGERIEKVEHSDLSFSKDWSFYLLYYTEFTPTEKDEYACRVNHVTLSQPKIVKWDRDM

KTFDTEYQK (listed as Dengue virus) [Peptide 1]
known ligand: ligand for HLA-03 (HLA-03) | ligand for HLA-11 (HLA-11) | ligand for HLA-31 (HLA-31)
